Measured values taken from US11884932B2, “In vitro production of medial ganglionic eminence precursor cells” (The Regents of the University of California, priority 2013, dated 2024).

What was measured:
[1] = test system: spontaneous PSCs recorded from hESC-derived neurons post-injection; experiment: Whole-cell recording of spontaneous PSCs of transplanted hESC-derived neurons in mouse brain slices; format: cell-based, human; settings: mouse brain slices 7 MPI
Procedure: (§1) For cultured neurons, the bath was constantly perfused with fresh recording medium containing (in mM): 145 NaCl, 3 KCl, 3 CaCl2, 2 MgCl2, 10 HEPES, 8 glucose. Transverse slices (300 μm) were cut on a […] (Leica VT1200S) and maintained in an incubation chamber with aCST containing (in mM): 110 Choline Cl, 2.5 KCl, 0.5 CaCl2, 7 MgCl2, 1.3 NaH2PO4, 25 NaHCO3, 10 glucose. Slice recording medium contained (in mM): 125 NaCl, 2.5 KCl, 2 CaCl2, 1.3 MgCl2, 1.3 NaH2PO4, 25 NaHCO3, 10 glucose. Recordings were made with an Axon 700B patch-clamp amplifier and 1320A interface (Axon Instruments). Signals were filtered at 2 kHz using amplifier circuitry, sampled at 10 kHz, and analyzed using Clampex 10.2 (Axon Instruments).
To examine whether hESC-derived MGE-like cells could develop into functional interneurons that synaptically integrate in vivo, we performed whole-cell recordings of RFP+ human cells in mouse brain slices seven MPI. […]
FIG. 7. hESC-derived MGE-like Interneuron Precursor Cell Maturation and Functional Integration in the Mouse Brain. • (A) Day 35 ML cultures FACS-sorted for NKX2.1-GFP and PSA-NCAM, and injected into newborn mouse cortex. […] Scale Bar: 50 μm. • (D-E) Quantification of histology at 2 (black), 4 (orange), and 7 (blue) MPI, and of SST, CALB, and CALR (E). […] Inset: RFP fluorescence of filled neuron 7 MPI. […]

GABAA receptor = experiment: Whole-cell patch recording of post-synaptic currents in cultured hESC-derived neurons and co-cultured human fetal cortical neurons; format: cell-based
Excerpt: The patch electrodes were made from borosilicate glass capillaries (B-120-69-15, Sutter Instruments) with a resistance in the range of 5-7 MΩ. The pipettes were tip-filled with internal solution containing (in mM): 125 K-gluconate, 15 KCl, 10 HEPES, 4 MgCl2, 4 Na2ATP, 0.3 Na3GTP, 10 Tris-phosphocreatine, 0.2 EGTA.
as §1
Photostimulation was delivered by mercury lamp (75 mW) with a GFP excitation bandpass filter and light pulses were generated by Maste-8 (A.M.P.I.) through a high-speed shutter (UNIBLITZ), the power density of the blue light (Boyden, E. S., et al. (2005). Nat Neurosci 8, 1263-1268) (Nagel, G., et al. (2003). Proc Natl Acad Sci USA 100, 13940-13945) was 8-12 mW·mm−2, measured with a power meter (Coherent Instruments).
The percentage of neurons receiving sPSCs increased from 33.3% at eight WPD (n=12) to 82.1% at 12 WPD (n=28, FIG. 6C). To confirm that GABAergic neurons were able to send outputs to neighboring neurons, we transfected half of the neurons with Synapsin promoter—Channelrhodopsin2-EYFP (ChR2-EYFP) by lentiviral infection. […] The reversal potential of light-evoked PSCs was −32.7 mV (FIGS. 6F and 6G), close to the expected Cl-reversal potential under our recording conditions [−37.3 mV=−53.4 mV (by Nernst equation)±16.1 mV (junction potential)]. […]

hESC-derived cultures [2] = experiment: Cells expressing telencephalic FOXG1 in hESC-derived cultures; format: cell-based, human
Procedure: Cultured cells were fixed in 4% paraformaldehyde for 10-20 min. Mouse brains were fixed overnight-4° C. after trans-cardial perfusion and sectioned (50 μm) by vibratome or sliding microtome. EBs and human tissue were sectioned (25 μm) by cryostat. Cells and sections were stained: 5-10 min antigen retrieval with boiling 0.01M citrate buffer pH=6, 1 hr block with 5% serum and 0.1% triton X100 in PBS, overnight-4° C. primary antibody in block buffer (except triton-free buffer used for GABA antibody), wash 3× in PBS+tritonX100, 2 hr secondary antibody (Invitrogen), wash 4× in PBS+tritoriX100.
(§2) SHH pathway activation was required for NKX2,1-GFP+ cell derivation. In this study, we used 1-2 μM of purmorphamine or 500 ng/mL of SHH. […] Addition of an FGF inhibitor (PD173074) from the onset of differentiation (d0-25) caused a decrease in cells expressing FOXG1 (55%), but addition of the same inhibitor on day 14 (d14-25) had no effect on FOXG1 levels (not shown). Therefore, similar to fetal forebrain development, early inhibition of WNT and activation of FGF signaling pathways, along with SHH activation, play roles in patterning the ventral-telencephalic-like identity of hESC-derived cultures.

HES-3 NKX2.1GFP/w hESCs = experiment: NKX2.1-GFP+ differentiation efficiency of hESCs by FACS / flow cytometry; format: cell-based, human; settings: for NKX2.1-GFP+ MGE precursor-like cell efficiency: KSR/B27 media
Procedure: HES-3 hESCs were maintained on irradiated mouse embryonic fibroblasts (Millipore) in knockout DMEM with 20% knockout serum replacement, 1% nonessential amino acids (NEAA), 1% pen-strep-glutamine, 0.0008% 2-mercaptoethanol, and 10 ng/mL FGF-basic (Invitrogen), Differentiation was initiated by CollagenaseIV/Dispase (1 mg/mL each; Invitrogen) preferential selection for hESC colonies. Colonies were trypsinized to single cells, and, as described (Eiraku, M., et al. (2008). Cell Stem Cell 3, 519-532), ˜10,000 cells/well were plated into low-attachment round-bottom 96-well plates (Corning or NOF) to form one sEB/well in optimized B27+5F; differentiation medium #1, consisting of Neurobasal-A, 2% B27-vitamin A (Invitrogen), and the same supplements in hESC media but without FGF. Also, Y27632 (10 μM), SB3431542 (10 μM), Purmorphamine (1-2 μM) (Stemgent), BMPRIA-Fc (1.5 μg/mL), and DIKK1 (1 μg/mL) (Invitrogen) were added.
On ˜d7, Y27632 was removed, and sEBs were plated adherent en-bloc onto matrigel (BD Biosciences) coated plates in medium #1. On ˜d14, factors were removed from medium #1 except for Purmorphamine. On ˜d25, aEBs were trypsinized and replated as dissociated monolayer onto matrigel or polyornithine/laminin coated plates. DAPT (10 μM) (Tocris) was added from ˜d27-d30. After FACS sorting on day ˜35, GFP+ cells could be replated (10-25,000 cells/cm2) onto cortical glial cells in medium #1. Glial cells were prepared from newborn mouse cortex, passaged at least 3× with serum to remove mouse neurons, and pre-treated at confluency with Ara-C (5 μM) (Sigma). Every 3-4 days, half of media was replaced with differentiation medium #2: Neurobasal-A, 2% B27+vitamin A, (Invitrogen) and same supplements in medium #1, without factors, except NEAA and Purmorphamine were removed, and BDNF (25 ng/mL) was added (R&D Systems). Media was replaced every 3-4 days.
FACS analysis and sorting was performed on FACS Aria II (BD Biosciences). Cells were gated for live cell DAN exclusion, small scatter size, single cells, NKX2.1-GFP signal, and PSA-NCAM-APC or -PE (Miltenyi Biotech) signal intensity. GFP-negative cells and isotype antibody (Santa Cruz) controls were used. Data was analyzed with Flowjo (Treestar) software. For live cell imaging, differentiation was similar to above, but 5,000 cells/well were plated into Aggrewell-800 plates (Stem Cell Technologies), and sEBs were plated en-bloc on day 4-7. Imaging was performed by time-lapse confocal microscopy with temperature (37° C.) and gas (5% O2, 5% CO2, 90% N2) controls (Leica SP5).
FIG. 24, Bottom Panel: Flow cytometry was used to determine the efficiency of generation of NKX2.1GFP+ MGE precursor cells using the small molecule inhibitors. The efficiency of generation of NKX2.1GFP+ MGE precursor cells was determined as what percent of cells of the cells analyzed were NKX2.1GFP+ MGE precursor cells.

hESC-derived cultures [3] = experiment: Viability of differentiating hESC cultures; format: cell-based, human; settings: 2-6 μM purmorphamine
Procedure: as §2
Cost-effective cell production methods will be preferred over lengthy protocols and expensive recombinant protein-based reagents, and cryopreservation of cells will facilitate future work. Here, we used 3 small molecules (Y27632, SB431542, and purmorphamine) and 2 recombinant proteins (BMPRIA-Fc and DKK1). Several small molecule substitutes now exist for inhibition of BMP and WNT pathways. […] In addition, ˜25% of hESC-derived MGE-like cells were viable after cryopreservation and thawing, and thawed cells matured into neurons with functional properties as confirmed by electrophysiology.

Question: Which “block of remaining spontaneous PSCs with fast decay-time” value ([1]; applied after BMI) does the source give for `N#Cc1cc2nc(O)c(O)nc2cc1[N+](=O)[O-]` [CNQX, 6-Cyano-2,3-dihydroxy-7-nitro-quinoxaline] here?
Answer: blocked

Question: For `C[N+]1(C)CCc2cc3c(cc2[C@H]1[C@@H]1OC(=O)c2c1ccc1c2OCO1)OCO3.[I-]` [BMI, bicuculline methiodide], which “block of spontaneous PSCs with slow decay-time” value [1] is on record?
Answer: blocked

Question: And the “block of spontaneous post-synaptic currents (sPSC)” value (GABAA receptor; BMI 20 μM, hESC-derived neurons co-cultured with mouse glial cells, eight weeks post-differentiation)?
Answer: fully blocked

Question: What about the “block of light-evoked PSCs” value (GABAA receptor; ChR2-EYFP hESC-derived neurons, blue light, neighboring neurons) of the same molecule?
Answer: reversible blockade

Question: And the “block of light-evoked GABAergic-specific PSCs in primary human fetal cortical neurons” value (GABAA receptor; co-culture seven weeks with ChR2 hESC-derived neurons)?
Answer: completely blocked

Question: With `CCN(CC)CCCCNc1ncc2cc(-c3cc(OC)cc(OC)c3)c(NC(=O)NC(C)(C)C)nc2n1` [PD173074] as the molecule, how does the “cells expressing FOXG1” value (hESC-derived cultures [2]; FGF inhibitor added from onset of differentiation (d0-25)) read?
Answer: 55%

Question: And the “effect on FOXG1 levels” value (hESC-derived cultures [2]; FGF inhibitor added on day 14 (d14-25))?
Answer: no effect

Question: For `c1ccc2c(Oc3nc(Nc4ccc(N5CCOCC5)cc4)c4ncn(C5CCCCC5)c4n3)cccc2c1` [purmorphamine], which “GFP+ differentiation efficiency in EB cultures” value (HES-3 NKX2.1GFP/w hESCs; 2-6 μM purmorphamine versus 1-2 μM used) is on record?
Answer: slightly increased

Question: What about the “NKX2.1-GFP+ MGE precursor-like cell efficiency” value (HES-3 NKX2.1GFP/w hESCs; 25-day hybrid method, purmorphamine day 10-25, SB431542, BMPRIA-Fc and DKK1 throughout, FACS) of the same molecule?
Answer: 12%

Question: And the “NKX2.1-GFP+ MGE precursor cells” value (HES-3 NKX2.1GFP/w hESCs; B27 media throughout 25-day protocol, early addition of five factors (Y27632, SB431542, BMPRIA-Fc, DKK1, purmorphamine))?
Answer: 70%

Question: And the “NKX2.1-GFP+ differentiation efficiency” value (HES-3 NKX2.1GFP/w hESCs; B27 media, early purmorphamine, inhibitors removed after two weeks (d14), protocol extended to day 35, FACS)?
Answer: up to 90%

Question: What about the “NKX2.1-GFP+ MGE precursor-like cell efficiency” value (HES-3 NKX2.1GFP/w hESCs; as hybrid method but purmorphamine from day 0-25) of the same molecule?
Answer: 1.9%

Question: And the “viability of later-stage monolayer cultures” value (hESC-derived cultures [3])?
Answer: decreased

B1: DKK1: Dickkopf homolog 1, recombinant protein WNT inhibitor (protein, UniProt O94907 32-266, looked up)
Dickkopf-related protein 1: TLNSVLNSNAIKNLPPPLGGAAGHPGSAVSAAPGILYPGGNKYQTIDNYQPYPCAEDEECGTDEYCASPTRGGDAGVQICLACRKRRKRCMRHAMCCPGNYCKNGICVSSDQNHFRGEIEETITESFGNDHSTLDGYSRRTTLSSKMYHTKGQEGSVCLRSSDCASGLCCARHFWSKICKPVLKEGQVCTKHRRKGSHGLEIFQRCYCGEGLSCRIQKDHHQASNSSRLHTCQRH
Question: Which results are given for B1?
Answer: number of cells expressing telencephalic FOXG1 (hESC-derived cultures [2]; DKK1 WNT inhibitor absent): 45%; number of cells expressing telencephalic FOXG1 (hESC-derived cultures [2]; with DKK1 WNT inhibitor): 70%; GFP+ cell differentiation efficiency (HES-3 NKX2.1GFP/w hESCs; DKK1 WNT inhibitor absent versus present): similar
